According to patent US4638005A, “Monoquaternized pyrazinium compounds and their use as electron carriers in photosynthetic processes” (The Coca-Cola Company, priority 1983, dated 1987):
Structures can show the parent of a compound that is named as a salt.

Columns and labels:
nitrogenase [1] = target: T1, nitrogenase (Azotobacter vinelandii, UniProt P00459); assay: Chloroplast-coupled evolution of hydrogen by nitrogenase in the absence of substrate; assay type: biochemical; settings: for ACTIVITY RELATIVE TO FERREDOXIN (%) / ACTIVITY (nmoles H2 /mg protein/min): Table II, hydrogen evolution; for ACTIVITY (nmoles H2 /mg protein/min): no nitrogen or acetylene, synthetic carriers 2 mM, ferredoxin 0.2 mM
T1 construct: the nitrogenase sample was prepared from a culture of Azotobacter vinelandii; endogenous in cells; host or cells: Azotobacter vinelandii culture; French press lysate, 10,000 x g supernatant (crude)
Description: (§1) For the bioassay, the nitrogenase sample was prepared from a culture of Azotobacter vinelandii grown to a cell density of about 1 g/l. The cells harvested by centrifugation were broken in a French press, cell debris spun off at 10,000 XG for 1 hr., and the supernatant containing 40 mg/ml protein was used in the bioassay experiments. […] chloroplasts from spinach leaves as described by Benemann were also used. The synthetic carriers were tested in aqueous solutions at concentrations of 2 mM, while the standard, clostridial ferredoxin, was used in 0.2 mM aqueous solution. The concentrations of carriers in the assay mixtures were chosen so as to guarantee carrier saturation conditions. Thus, the observed differences in rates of ethylene production from the substrate acetylene were assigned directly to variations in the efficiency of electron transfer from the illuminated chloroplast to the nitrogenase. The results obtained for acetylene reduction (nitrogen fixation) using the pyrazinium compounds of Examples 1 through 42 are summarized in Table I and are expressed as nmoles of ethylene produced per mg protein per minute.
It has been recognized for sometime the connection existing between hydrogen metabolism and nitrogen fixation. […] When nitrogenase was purified extensively, as mentioned above, it became apparent that in addition to nitrogen, nitrogenase also catalyzed the reduction of protons. The evolution of hydrogen is particularly active in the absence of the normal substrates for nitrogenase (nitrogen, acetylene, cyanide, azide, etc.), and is dependent upon a strong reductant and adenosine triphosphate hydrolysis. Since hydrogen evolution is not inhibited by CO, but reduction of nitrogen and other substrates is, the reduction of protons presumably occurs at a site other than the site of nitrogen reduction, H. C. Winter, et. al., Ann Rev. Biochem, 45, 409 (1976). Accordingly, with the same bioassay system and with exclusion of nitrogen, and acetylene, the activity of the pyrazinium compounds to act as carriers for production of hydrogen has been determined.
The results of this study, which are summarized in Table II, indicate that the pyrazinium salts that mediate the reduction of acetylene with electrons from the photoexcited chloroplast, are also mediating the reduction of protons by the nitrogenase.

[2] = Polarographic half-wave potential (first wave reduction); assay type: physicochemical; settings: 0.1 M phosphate buffer pH 7.55, 25° C.
Text: Sci., 65, 1471(1976). Therefore, it was of interest to measure polarographically the half-wave potentials of the several pyrazinium salts under consideration, to determine the possible effect of structure upon their redox potentials.

nitrogenase [3] = target: T1, nitrogenase; assay: Chloroplast-coupled reduction of acetylene to ethylene by nitrogenase (electron carrier bioassay of Benemann); assay type: biochemical; settings: for ACTIVITY RELATIVE TO FERREDOXIN (%) / ACTIVITY (nmoles C2 H4 /mg protein/min): Table I; for ACTIVITY RELATIVE TO FERREDOXIN (%): acetylene reduction to ethylene; for ACTIVITY (nmoles C2 H4 /mg protein/min): illuminated spinach chloroplasts, synthetic carriers 2 mM, clostridial ferredoxin 0.2 mM; for ETHYLENE FORMATION % Ferredoxin Activity: Table III ranking; for % FERREDOXIN ACTIVITY: Table IV, acetylene reduction
Description: The activity of the pyrazinium compounds as electron carriers in an illuminated photocouple process using isolated chloroplasts and the reductive enzyme catalyst nitrogenease has been determined using the bioassay of Benemann, et al., Proc. Natl. Acad. Sci. USA, 64, 1079(1969). In this method, the carrier activity is measured as a function of nitrogenase reduction of acetylene to ethylene, the rate of production of ethylene being the direct measurement.
as §1

T1 sequence (P00459 2-290 limits assumed): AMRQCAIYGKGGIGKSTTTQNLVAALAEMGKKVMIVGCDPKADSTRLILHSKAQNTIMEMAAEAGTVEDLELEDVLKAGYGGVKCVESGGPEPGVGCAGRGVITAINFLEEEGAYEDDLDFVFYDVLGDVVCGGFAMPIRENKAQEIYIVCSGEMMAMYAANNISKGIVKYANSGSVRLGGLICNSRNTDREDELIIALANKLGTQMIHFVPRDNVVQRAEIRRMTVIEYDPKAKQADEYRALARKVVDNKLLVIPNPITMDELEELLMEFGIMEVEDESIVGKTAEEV

Molecule	ACTIVITY RELATIVE TO FERREDOXIN (%) (nitrogenase [1])	ACTIVITY (nmoles H2 /mg protein/min) (nitrogenase [1])	E1/2 vs. SCE (mV) [2]	ACTIVITY RELATIVE TO FERREDOXIN (%) (nitrogenase [3])	ACTIVITY (nmoles C2 H4 /mg protein/min) (nitrogenase [3])	ETHYLENE FORMATION % Ferredoxin Activity (nitrogenase [3])	% FERREDOXIN ACTIVITY (nitrogenase [3])	HYDROGEN EVOLUTION % Ferredoxin Activity (nitrogenase [1]; Table III ranking)
1-Methyl-3(2)-hydroxymethyl-6(5)-methylpyrazinium iodide [Compound 500]	46%	12.3 nmoles H2 /mg protein/min	-751 mV	22%	3.0 nmoles C2 H4 /mg protein/min	22%	22%	
CC(O)c1c[n+](C)ccn1 (stereo not drawn) [Compound 200, 1-Methyl-3-(1-hydroxyelhyl)pyrazinium iodide]	64%	17.2 nmoles H2 /mg protein/min	-699 mV	17%	2.3 nmoles C2 H4 /mg protein/min	17%	17%	
C[n+]1ccnc(CCO)c1.[I-] [Compound 300, 1-Methyl-3-(2-hydroxyethyl)pyrazinium iodide]	30%	8.1 nmoles H2 /mg protein/min	-683 mV	41%	5.5 nmoles C2 H4 /mg protein/min	41%	41%	
Cc1c[n+](C)cc(CO)n1.[I-] [Compound 400, 1-Methyl-3-hydroxymethyl-5-methylpyrazinium iodide]	74%	19.7 nmoles H2 /mg protein/min	-738 mV	26%	3.5 nmoles C2 H4 /mg protein/min	26%	26%	
Cc1c[n+](CCCS(=O)(=O)[O-])ccn1 [Compound 600]	106%	28.4 nmoles H2 /mg protein/min	-651 mV	64%	8.7 nmoles C2 H4 /mg protein/min	64%	64%	
Cc1c[n+](CCCS(=O)(=O)[O-])c(C)cn1 [Compound 700, 1-(3-Sulfonylpropyl)-2,5-dimethylpyrazine]	74%	19.7 nmoles H2 /mg protein/min	-700 mV	104%	14.0 nmoles C2 H4 /mg protein/min	104%	104%	
O=C(O)CC[n+]1ccncc1.[Br-] [Compound 800, 1-(2-Carboxyethyl)pyrazinium bromide]	28%	7.5 nmoles H2 /mg protein/min	-625 mV	50%	6.8 nmoles C2 H4 /mg protein/min	50%	50%	
CCC(Cc1c[n+](C)ccn1)S(=O)(=O)[O-] (stereo not drawn) [Compound 1000]	73%	19.5 nmoles H2 /mg protein/min	-710 mV	95%	12.8 nmoles C2 H4 /mg protein/min	95%	95%	
CCCC(c1c[n+](C)ccn1)S(=O)(=O)[O-] (stereo not drawn) [Compound 1200]	143%	38.1 nmoles H2 /mg protein/min	-699 mV	107%	14.5 nmoles C2 H4 /mg protein/min	107%	107%	
C[n+]1ccnc(CCC(O)CO)c1.[I-] (stereo not drawn) [Compound 1500, 1-Methyl-3-(3,4-dihydroxybutyl)pyrazinium iodide]	86%	22.9 nmoles H2 /mg protein/min	-683 mV	41%	5.5 nmoles C2 H4 /mg protein/min	41%	41%	
C[n+]1ccnc(C(CC(O)CO)CC(O)CO)c1 (stereo not drawn) [Compound 1700, 1-Methyl-3-[4-(1,2,6,7-tetrahydroxyheptyl)]pyrazinium iodide]	62%	16.6 nmoles H2 /mg protein/min	-715 mV	33%	4.5 nmoles C2 H4 /mg protein/min	33%	33%	
C[n+]1ccnc(C(CCCS(=O)(=O)[O-])CCCS(=O)(=O)O)c1 (stereo not drawn) [Compound 1800, 4-(1-Methyl-3-pyrazinyl)heptane-1,7-disulfonate sodium salt]	129%	34.4 nmoles H2 /mg protein/min	-683 mV	124%	16.7 nmoles C2 H4 /mg protein/min	124%	124%	
C[n+]1ccnc(CCCCS(=O)(=O)[O-])c1 [Compound 1801]	106%	28.4 nmoles H2 /mg protein/min	-676 mV	79%	10.7 nmoles C2 H4 /mg protein/min	79%	79%	
C[n+]1ccnc(S(=O)(=O)[O-])c1 [Compound 2000]	100%	26.6 nmoles H2 /mg protein/min	-573 mV	61%	8.3 nmoles C2 H4 /mg protein/min	61%	61%	
C[n+]1ccnc(C(O)CO)c1.[I-] (stereo not drawn) [Compound 2200, 1-Methyl-3-(1,2-dihydroxyethyl)pyrazinium iodide]	98%	26.2 nmoles H2 /mg protein/min	-704 mV	55%	7.5 nmoles C2 H4 /mg protein/min	55%	55%	
CC(c1c[n+](C)ccn1)S(=O)(=O)[O-] (stereo not drawn) [Compound 2400]	128%	34.1 nmoles H2 /mg protein/min	-701 mV	105%	14.2 nmoles C2 H4 /mg protein/min	105%	105%	
C[n+]1ccnc(CCS(=O)(=O)[O-])c1 [Compound 2600]	154%	41.2 nmoles H2 /mg protein/min	-730 mV	98%	13.2 nmoles C2 H4 /mg protein/min	98%	98%	
C[n+]1ccnc(CCC(=O)O)c1.[I-] [Compound 3900, 1-Methyl-3-(2-carboxyethyl)pyrazinium iodide]	45%	11.9 nmoles H2 /mg protein/min		27%	3.7 nmoles C2 H4 /mg protein/min	27%		
C=Cc1c[n+](C)ccn1 [Compound 5100]		2.8 nmoles H2 /mg protein/min			1.8 nmoles C2 H4 /mg protein/min	13%	13%	10%
